Results published in US11274104B2, “Crystal forms of thiophene derivatives” (Tianjin Hemay Pharmaceutical Co., Ltd, priority 2018, dated 2022).

Columns and labels:
Type in all cases: physicochemical
[1] = High temperature stability (40° C., 1 month)
Description: (§1) Crystal form II of (S)—N-[5-[1-(3-ethoxy-4-methoxyphenyl)-2-(methylsulfonyl)ethyl]-4,6-dioxo-5,6-dihydro-4H-thieno[3,4-c]pyrrole-1-yl]acetamide prepared according to the process of Example 1 was placed at 40° C. (high temperature). After 1 month, liquid chromatogram and DSC were tested.

[2] = Accelerated stability (40° C., RH 75%, 1 month)
Description: as §1, with “placed in a stability text box” for “placed”, “and Rh=75%.” for “(high temperature).”

[3] = Illumination stability (4500 lux, 1 month); settings: liquid chromatogram
Description: as §1, with “in a 4500 lux of illumination box for” for “at 40° C. (high temperature). After”, “month. Liquid” for “month, liquid”, “tested after 1 month.” for “tested.”

Grinding stability = settings: grinding in a glass mortar for 5 minutes
Description: Crystal form II of (S)—N-[5-[1-(3-ethoxy-4-methoxyphenyl)-2-(methylsulfonyl)ethyl]-4,6-dioxo-5,6-dihydro-4H-thieno[3,4-c]pyrrole-1-yl]acetamide prepared according to the process of Example 1 was ground in a glass mortar for 5 minutes. The ground samples were tested with XRPD.

[4] = Pressure stability (tablet press); settings: single punch tablet press, tablet 6 mm, hardness 25-30 N; DSC (FIG. 5)
Description: Crystal form II of (S)—N-[5-[1-(3-ethoxy-4-methoxyphenyl)-2-(methylsulfonyl)ethyl]-4,6-dioxo-5,6-dihydro-4H-thieno[3,4-c]pyrrole-1-yl]acetamide was pressed by tablet press machine with single punch. The diameter of the tablet was 6 mm and the hardness was 25-30 N. DSC test was carried out on pressed powder.

Hygroscopicity (RH=80%) = assay: Hygroscopicity (RH=80%)
Description: Hygroscopicity of crystal form II of (S)—N-[5-[1-(3-ethoxy-4-methoxyphenyl)-2-(methylsulfonyl)ethyl]-4,6-dioxo-5,6-dihydro-4H-thieno[3,4-c]pyrrole-1-yl]acetamide was studied. Crystal form II of (S)—N-[5-[1-(3-ethoxy-4-methoxyphenyl)-2-(methylsulfonyl)ethyl]-4,6-dioxo-5,6-dihydro-4H-thieno[3,4-c]pyrrole-1-yl]acetamide was placed in a drier containing saturated ammonium chloride solution (RH=80%) until weight was balanced. The crystal form was tested with XRPD.
Crystal form II of (S)—N-[5-[1-(3-ethoxy-4-methoxyphenyl)-2-(methylsulfonyl)ethyl]-4,6-dioxo-5,6-dihydro-4H-thieno[3,4-c]pyrrole-1-yl]acetamide prepared according to the process of Example 1 was tested.

[5] = day 0, before storage at 40° C., liquid chromatogram
[6] = storage at 40° C., 1 month, liquid chromatogram

stability under high temperature conditions (in words) ([1]; 40° C., 1 month): good stability
Relevant Substance Contents at Day 0 (%) [1, 5]: 0.10%
Relevant Substance Contents after 1 Month (%) [1, 6]: 0.12%
stability under high-temperature and high-humidity conditions (in words) ([2]; 40° C., 1 month): good stability
Relevant Substance Contents at Day 0 (%) [2, 5]: 0.11%
Relevant Substance Contents after 1 Month (%) [2, 6]: 0.11%
Relevant Substance Contents after 1 Month (%) ([3]; 4500 lux, 1 month): 0.06%
Relevant Substance Contents at Day 0 (%) ([3]; day 0, before illumination at 4500 lux): 0.06%
grinding stability (in words) (Grinding stability): good grinding stability
pressure stability (in words) [4]: good stability
hygroscopicity (in words) (Hygroscopicity (RH=80%); RH=80%): hardly absorbed moisture
Weight Increase (Hygroscopicity (RH=80%); RH=80% (saturated ammonium chloride solution) until weight balanced, mAPI 0.497 g): -0.001 g
Moisture Absorption (%) (Hygroscopicity (RH=80%); RH=80% until weight balanced): 0%
Crystal Form after Absorbing Moisture (Hygroscopicity (RH=80%); RH=80% until weight balanced, XRPD): did not change
SMILES: CCOc1cc([C@@H](CS(C)(=O)=O)N2C(=O)c3csc(NC(C)=O)c3C2=O)ccc1OC [crystal form II, (S)—N-[5-[1-(3-ethoxy-4-methoxyphenyl)-2-(methylsulfonyl)ethyl]-4,6-dioxo-5,6-dihydro-4H-thieno[3,4-c]pyrrole-1-yl]acetamide]
